From patent publication US20250388564A1, “METHODS OF MANUFACTURING PYRIDAZINONE COMPOUNDS” (Edgewise Therapeutics, Inc., priority 2022, published 2025) come the findings set out here.

As usually defined, the solubility is the concentration that dissolves in the medium under given conditions.

Values after ≈ are worked out from the molar mass of the structure shown.

The series can be described thus: Solubility of Compound IX in solvents (Table 1). The class given is physicochemical. Conditions: for solubility: organic solvent or mixture.

As to `O=c1ccc(-c2cnc(OCC(F)(F)F)nc2)n[nH]1` [Compound IX, 6-[2-(2,2,2-trifluoroethoxy)pyrimidin-5-yl]-2,3-dihydropyridazin-3-one], the solubility reads like this: (1,4-dioxane, solvent 1,4-dioxane (entry 8)) 2900 µg/mL (≈ 10.7 mM); (ACN, solvent ACN (entry 6)) 1500 µg/mL (≈ 5.51 mM); (DCE, solvent DCE (entry 1)) 150 µg/mL (≈ 0.551 mM); (DCM, solvent DCM (entry 17)) 300 µg/mL (≈ 1.1 mM); (DMA, solvent DMA (entry 19)) 13000 µg/mL (≈ 47.8 mM); (DME, solvent DME (entry 4)) 3260 µg/mL (≈ 12 mM). The solubility is, setting by setting: (DME, solvent DME (entry 21)) 10000 µg/mL (≈ 36.7 mM); (DMF, solvent DMF (entry 18)) 21000 µg/mL (≈ 77.2 mM); (DMSO, solvent DMSO (entry 10)) 45000 µg/mL (≈ 165 mM); (EA, solvent EA (entry 16)) 700 µg/mL (≈ 2.57 mM); (EtOH, solvent EtOH (entry 12)) 1000 µg/mL (≈ 3.67 mM); (MTBE, solvent MTBE (entry 15)) 100 µg/mL (≈ 0.367 mM). Besides, the solubility turned out to be 2500 µg/mL (≈ 9.18 mM) (MeOH, solvent MeOH (entry 11)); 44000 µg/mL (≈ 162 mM) (NMP, solvent NMP (entry 20)); 2730 µg/mL (≈ 10 mM) (THF, solvent THF (entry 5)); 1590 µg/mL (≈ 5.84 mM) (acetone, solvent Acetone (entry 2)); 500 µg/mL (≈ 1.84 mM) (i-PrOH, solvent i-PrOH (entry 13)); 100 µg/mL (≈ 0.367 mM) (t-BuOH, solvent t-BuOH (entry 14)). In addition, for the setting “thietane 1,1-dioxide, solvent thietane 1,1-dioxide (entry 3)”, the solubility came out at 6350 µg/mL (≈ 23.3 mM). The “solubility (in words)” value (overall statement on Table 1) is given as “limited solubility”.
